Drawing on ChEMBL document CHEMBL3507680, “University of Dundee, Gates Library screen for HepG2 cell viability”, this text covers cytotoxicity for 98 compounds.

The data set can be described thus: Human HepG2 cell viability assay in 384 well format. It is filed as toxicity, cell-based. The conditions noted are these: HepG2 cells, read-out: Inhibition. Details: dose 125 nL, time 70.5 hour; concentration not given beside the values.
As for `CCC(NC(=O)c1cnc(-c2cccnc2)nc1)c1ccnn1C` (stereo not drawn), the cytotoxicity at 70.5 h amounted to 32.1%.

With `CSc1ccccc1C(=O)N1CCOC(CCN(C)C)C1` (stereo not drawn), the cytotoxicity at 70.5 h is -15.3%.

Regarding `Nc1nc(N2CCCC(COc3ccc(F)cc3)C2)c2nc[nH]c2n1` (stereo not drawn), the cytotoxicity at 70.5 h was -7.35%.

In the case of `CC(C)C[C@H](NCc1cc(O)c2cccc(F)c2n1)C(N)=O`, the cytotoxicity at 70.5 h is -11.8%.

Consider `Cn1cccc1-c1cc(C(=O)N2CCCC2C(F)(F)F)[nH]n1` (stereo not drawn), for which the cytotoxicity at 70.5 h was -5.87%.

Consider `COCc1noc(Cn2c(C)cc(C(F)(F)F)cc2=O)n1`, for which the cytotoxicity at 70.5 h is -10.7%.

In the case of `CCNC(=O)c1ccnc(CC2COc3c(cccc3OC)C2)c1` (stereo not drawn), the cytotoxicity at 70.5 h is -38.4%.

Turning to `Cc1ccc(C(C(=O)O)N2CCCN(Cc3ccccn3)CC2)c(F)c1` (stereo not drawn), the cytotoxicity at 70.5 h was -4.69%.

For the compound `CN1CCCC2(CCN(S(=O)(=O)c3ccc(-c4cnco4)s3)C2)C1=O` (stereo not drawn), the cytotoxicity at 70.5 h is -7.66%.

With `O=C(NCCN1CCOCC1)c1cc(COc2ccccc2F)[nH]n1`, the cytotoxicity at 70.5 h came to 0.766%.

Consider `COc1ccc(CCN(C)C(=O)CN2C(=O)OC[C@@H]2C(C)C)cc1OC`, for which the cytotoxicity at 70.5 h was -4.47%.

Turning to `Cc1cccc(-c2ncc(CNC(C)Cc3ccncc3)cn2)c1` (stereo not drawn), the cytotoxicity at 70.5 h was -3.63%.

`CCn1nc(CC(C)C)cc1C(=O)N1CCC(n2cnnc2)CC1`: the cytotoxicity at 70.5 h amounted to 8.59%.

For `CC(C)[C@@H]1CN(Cc2cnc(C3CCCCC3)nc2)C[C@H]1C(=O)O`, the cytotoxicity at 70.5 h was 8.1%.

As to `Cc1cc(N(C)Cc2snnc2C)nc(-c2cccnc2)n1`, the cytotoxicity at 70.5 h is -12.5%.

On to `Cc1ccc2nc(-c3nc4c([nH]3)CC(C)(C)CNC4=O)cn2c1`, for which the cytotoxicity at 70.5 h stood at 7.51%.

Consider `CCn1cc(CN2C[C@H]3CC[C@@H]2CN(C(=O)c2ccncc2)C3)cn1`, for which the cytotoxicity at 70.5 h turned out to be 21%.

Turning to `CC(C)[C@H]1CN(C(=O)CC2CCC2)C[C@@H]1N(C)C`, the cytotoxicity at 70.5 h came out at 18.9%.

Regarding `CCN1CCN(C[C@H]2CC[C@@H](Cc3ccc4c(c3)OCO4)O2)CC1`, the cytotoxicity at 70.5 h was -5.47%.

As to `Cn1cncc1C(=O)N1CCCC(c2ccn[nH]2)C1` (stereo not drawn), the cytotoxicity at 70.5 h is -16.9%.

As for `CCCn1ncc(C2CC(=O)NCc3nc4sc(C)cn4c32)c1C` (stereo not drawn), the cytotoxicity at 70.5 h was -3.1%.

Regarding `COc1cccc2c(=O)n(Cc3cccnc3)cnc12`, the cytotoxicity at 70.5 h was -6.26%.

On to `Cc1cc(C)c2nc(CN3C[C@H](CCO)[C@@H](N)C3)cc(O)c2c1`, for which the cytotoxicity at 70.5 h is -4.09%.

Consider `CC(=O)N1CCN(C(=O)Nc2ccc(Cl)cc2)[C@H]2CS(=O)(=O)C[C@H]21`, for which the cytotoxicity at 70.5 h was -2.86%.

Take `Cc1cc(N2CCOC(CN)C2)nc(-c2ccccc2)n1` (stereo not drawn): the cytotoxicity at 70.5 h was -10.8%.

As for `CC(=O)N[C@@H]1CN(Cc2nccn2C)C[C@H]1c1ccc(C)cc1`, the cytotoxicity at 70.5 h stood at 22.6%.

For the compound `Cc1ccc2c(c1)c(CNC(=O)C1CCCN(CC(N)=O)C1)nn2C` (stereo not drawn), the cytotoxicity at 70.5 h was -10.2%.

For the compound `C[C@@H]1CN(c2cccnn2)CC[C@@]1(O)C1CCOCC1`, the cytotoxicity at 70.5 h was -4.49%.

On to `Cc1cc(C)n(CC(=O)N2CCCCC2CCN2CCCC2=O)c(=O)n1` (stereo not drawn), for which the cytotoxicity at 70.5 h was -12.3%.

For `CCNC(=O)N1CCC(Nc2nccc(NCC)n2)CC1`, the cytotoxicity at 70.5 h was -11.4%.

Regarding `Cc1c(C(C)N)cnn1-c1cccc2ccccc12` (stereo not drawn), the cytotoxicity at 70.5 h was -5.48%.

For `CCc1cc(NC2CCN(CC(N)=O)CC2)nc(N2CCCCC2)n1`, the cytotoxicity at 70.5 h is -2.44%.

In the case of `CC(C)N1CCC(C(=O)N2CCC(c3ccc(F)cc3)C2)CC1` (stereo not drawn), the cytotoxicity at 70.5 h is -20.4%.

Turning to `CN(C)C(=O)N1CCCn2nc(CNC(=O)CCc3ccsc3)cc2C1`, the cytotoxicity at 70.5 h was -9.25%.

In the case of `CCOC(=O)CC1CCCCN1C(=O)CCc1cc(Cl)no1` (stereo not drawn), the cytotoxicity at 70.5 h is -1.88%.

As for `N#Cc1c(N)nc2c(c1C1CCOC1)CCc1cc(O)ccc1-2` (stereo not drawn), the cytotoxicity at 70.5 h was -11.5%.

Regarding `Cc1nc(O)cc(C2CCCN(C(=O)CN(C)c3ccccc3)C2)n1` (stereo not drawn), the cytotoxicity at 70.5 h was found to be 1.65%.

`COc1ccccc1OC1(C(=O)O)CCN(c2cnccn2)CC1`: the cytotoxicity at 70.5 h came out at 47.4%.

Regarding `Cc1nn(C)cc1-c1ccnc(N(C)Cc2ccoc2)n1`, the cytotoxicity at 70.5 h was -3.89%.

Regarding `CCOC(=O)N1CCN(C(=O)C(C)n2ccnc2C(C)C)CC1` (stereo not drawn), the cytotoxicity at 70.5 h was determined as 8.16%.

Regarding `Cc1cc(C)c(-c2nc(-c3c(C)ncc4c3CCNC4)no2)o1`, the cytotoxicity at 70.5 h is -11.5%.

In the case of `CCc1cc(N2CCNCC2)n2nc(C)c(C)c2n1`, the cytotoxicity at 70.5 h was -3.36%.

Take `COc1ccc(CN2C[C@@H](CN(C)C)[C@@H](CO)C2)cc1OC`: the cytotoxicity at 70.5 h is -3.1%.

For `CS(=O)(=O)N1CCC(Oc2ccc(C(=O)NC3CCOC3)cc2Cl)CC1` (stereo not drawn), the cytotoxicity at 70.5 h is -7.64%.

Turning to `COc1cccc(OCC(=O)NCc2ccc3[nH]c(=O)[nH]c3c2)c1`, the cytotoxicity at 70.5 h is -13.7%.

Regarding `NC1CCCN(C(=O)c2csc(-c3ccc(C(F)(F)F)cc3)n2)CC1` (stereo not drawn), the cytotoxicity at 70.5 h was found to be 36.2%.

Turning to `Cc1ccc(NCCCc2c(C)noc2C)nn1`, the cytotoxicity at 70.5 h was -6.84%.

On to `CN(C)C(=O)c1noc2c1CN(C(=O)CCC1CCCCN1C)CC2` (stereo not drawn), for which the cytotoxicity at 70.5 h is -4.32%.

Consider `COCCN(Cc1ccc(OC)nc1)Cc1cccs1`, for which the cytotoxicity at 70.5 h came out at 29.6%.

As for `CCC(C)N(Cc1ccncc1)C(=O)CCC(=O)OC` (stereo not drawn), the cytotoxicity at 70.5 h was 4.04%.

As for `COc1ccc(-c2cc[nH]n2)cc1CNC1CCCC1`, the cytotoxicity at 70.5 h was -7.14%.

Take `O=C(CCn1cncn1)N1CC[C@@H](c2ccc3ccccc3c2)[C@H](O)C1`: the cytotoxicity at 70.5 h was -10.5%.

`Cc1nc[nH]c1-c1nccn1-c1ccc(C(N)=O)c(N2CCCC2)c1`: the cytotoxicity at 70.5 h amounted to 20.6%.

Consider `Cc1nnc(CNCC2(O)CCCN(Cc3ccc(F)c(F)c3)C2=O)[nH]1` (stereo not drawn), for which the cytotoxicity at 70.5 h is -0.578%.

Turning to `Cc1ccccc1C(C(=O)NCCSC(F)(F)F)N(C)C` (stereo not drawn), the cytotoxicity at 70.5 h was -11.1%.

`Cc1ccnc(CC(C)N(C)c2cc(CCN)nc(C)n2)c1` (stereo not drawn): the cytotoxicity at 70.5 h is -6.01%.

In the case of `O=C(CCc1nc(Cl)n[nH]1)NC1CCCN(CC2CCCCC2)C1` (stereo not drawn), the cytotoxicity at 70.5 h was 0.564%.

In the case of `CCN(Cc1cc(Cl)ccc1OC)Cc1cc(C)nn1C`, the cytotoxicity at 70.5 h amounted to 2.1%.

`O=C(O)CC1COCCN1Cc1ccccc1OCCc1ccccc1` (stereo not drawn): the cytotoxicity at 70.5 h is -3.62%.

For `CC(=O)N1CCCCC1c1ncnn1-c1ccc2nc(C)sc2c1` (stereo not drawn), the cytotoxicity at 70.5 h is -4.05%.

For `Cc1nc(CC(=O)N(CCN2CCOCC2)Cc2ccco2)c(C)s1`, the cytotoxicity at 70.5 h is -4.1%.

For `CCOc1ncccc1C(=O)N1CCN(C)C2(CCN(C)CC2)C1`, the cytotoxicity at 70.5 h came to 4.53%.

Take `N[C@H]1CN(S(=O)(=O)N2CCCC2)C[C@@H]1c1ccccc1`: the cytotoxicity at 70.5 h is -4.68%.

With `CCc1ccc2nc(C)cc(C(=O)N[C@@H]3CCCNC3)c2c1`, the cytotoxicity at 70.5 h stood at 2.34%.

Take `Cc1nc(O)cc(CCNC(=O)C2CC(=O)N(CC(C)C)C2)n1` (stereo not drawn): the cytotoxicity at 70.5 h is -8.39%.

For `Cc1cccc2[nH]c(C3CCN(C(=O)c4cnc(O)cc4O)CC3)nc12`, the cytotoxicity at 70.5 h is 22.7%.

In the case of `COc1ccc([C@@H]2CN(Cc3cccnc3N)C[C@H]2NC(C)=O)cc1`, the cytotoxicity at 70.5 h is -8.12%.

In the case of `CCOCC(=O)N1CCC(c2nccn2CC2CC2)CC1`, the cytotoxicity at 70.5 h was determined as 1.15%.

Turning to `Cc1nc2c(c(=O)n1C)CCN(C(=O)CCc1ccccn1)CC2`, the cytotoxicity at 70.5 h is -5.46%.

With `COc1cccc(N2CCN(C(=O)CCO)CC2=O)c1`, the cytotoxicity at 70.5 h is -8.46%.

For `CN1Cc2ccccc2CC1C(=O)N1CCN(CCS(C)(=O)=O)CC1` (stereo not drawn), the cytotoxicity at 70.5 h was determined as 5.5%.

Turning to `Cc1cc(=O)[nH]c(SC(C)C(=O)N2CCC(NS(C)(=O)=O)CC2)n1` (stereo not drawn), the cytotoxicity at 70.5 h stood at 2.17%.

Regarding `O=C(NCCC1CN(Cc2c[nH]cn2)CCO1)Nc1ccccc1` (stereo not drawn), the cytotoxicity at 70.5 h is -8.29%.

As for `O=C(CCCn1cncn1)N1CCC2(CC1)[C@H](O)C[C@@H]2OCCO`, the cytotoxicity at 70.5 h was -6.43%.

With `O=C(NCc1ccco1)c1cc(N2CC[C@@H](O)C2)ccn1`, the cytotoxicity at 70.5 h stood at 30.9%.

Take `O=C(NCCc1ccncc1)c1ccc(S(=O)(=O)NC2CCC2)cc1`: the cytotoxicity at 70.5 h was -9.51%.

Consider `CN1CCCC2(CCN(c3cccc(C#N)n3)C2)C1=O` (stereo not drawn), for which the cytotoxicity at 70.5 h was -8.81%.

With `CC(C)n1ccnc1C1CCN(C(=O)c2ccc(SCCO)cc2)CC1`, the cytotoxicity at 70.5 h is -8.09%.

As to `Cc1nc2c(c(N(C)C)n1)CCN(C(=O)c1sccc1S(N)(=O)=O)C2`, the cytotoxicity at 70.5 h is -7%.

Regarding `O=C(O)c1cccnc1CN1CCCCC1CCc1cccs1` (stereo not drawn), the cytotoxicity at 70.5 h was 12.3%.

`O=C(Cc1ccsc1)N1CCC(Cn2cc(CCO)nn2)CC1`: the cytotoxicity at 70.5 h was -14.1%.

As for `CCC(C)N(Cc1cccnc1)Cc1ccc2c(c1)OCCO2` (stereo not drawn), the cytotoxicity at 70.5 h worked out at 3.73%.

For `COc1cc(N2CCN(Cc3ccc(C)o3)C(CCO)C2)nc(N)n1` (stereo not drawn), the cytotoxicity at 70.5 h was -4.16%.

With `COCc1nc(CNc2cc(C)nc(N3CCCCC3)n2)no1`, the cytotoxicity at 70.5 h is -7.86%.

For the compound `c1ccc(-c2nc3c(c(NCCc4c[nH]cn4)n2)CCNC3)cc1`, the cytotoxicity at 70.5 h is -12.1%.

As for `CCC(C)NC(=O)NCc1cc2n(n1)CCCN(C1CCCCC1)C2` (stereo not drawn), the cytotoxicity at 70.5 h turned out to be 4.95%.

`O=C(CCn1cc(Cl)cn1)N1C[C@@H]2CC[C@H](C1)N(Cc1ccccn1)C2`: the cytotoxicity at 70.5 h was -11.7%.

In the case of `Cc1oc(-c2ccc(F)cc2)nc1CN1CCOCS1(=O)=O`, the cytotoxicity at 70.5 h is -12.2%.

Take `Fc1ccc(C(CNc2ccncn2)N2CCCCC2)cc1` (stereo not drawn): the cytotoxicity at 70.5 h was -13.6%.

For the compound `CCn1ccnc1C1CCN(Cc2cccc(Cl)c2)CC1`, the cytotoxicity at 70.5 h amounted to 37.8%.

Regarding `Cc1nc(N)nc(C)c1Cc1nc(C2CC2)n[nH]1`, the cytotoxicity at 70.5 h is -0.863%.

Take `COc1ccc(C(=O)N2CCOC3(CNCCOC3)C2)c(OC)n1` (stereo not drawn): the cytotoxicity at 70.5 h is 28%.

Regarding `O=C(NCCN1CCCCCC1)c1coc(COc2ccc(F)cc2)n1`, the cytotoxicity at 70.5 h came to 8.68%.

`CCOCCn1c(=O)n(CCC=C(C)C)c2cc(C(=O)O)cnc21`: the cytotoxicity at 70.5 h was -4.64%.

On to `Cc1ccccc1CC1(C(=O)O)CCCN(c2ncnc3[nH]ccc23)C1` (stereo not drawn), for which the cytotoxicity at 70.5 h was -5.97%.

Take `Cc1ccccc1CSc1nc(N)cc(N2CCOCC(CO)C2)n1` (stereo not drawn): the cytotoxicity at 70.5 h is 6.16%.

As to `Cc1cc(NCCS(C)(=O)=O)nc2cc3c(cc12)CCC3`, the cytotoxicity at 70.5 h is -5.3%.

As for `CCNc1ncc(C(=O)NCCc2csc(-c3ncccn3)n2)cn1`, the cytotoxicity at 70.5 h is 5.7%.
